# Key:
# Type in all cases: in vivo
# C57BL/6 (WT) mice = experiment: Mouse hair cycle modulation, hair cycle score, WT mice; details: for Gross morphology of dorsum: topical
# Description: First, we topically applied P5 and minoxidil as a positive control (Messenger & Rundegren, [2004]) on wildtype (WT) mouse. […] Overall, the hair cycle score was higher in the P5‐treated mice than vehicle‐treated mice (Fig 4B). […] Collectively, P5 induces anagen hair cycle in vivo.
# For the hair cycle modulation experiment, Adipoq ^−/− (stock #008195; JAX) (Ma et al, [2002]), Adipor1 ^−/− (Yamauchi et al, [2007]; Okada‐Iwabu et al, [2013]), or C57BL/6 (KOATECH) female mice was used (Müller‐Röver et al, [2001]). They were housed (up to four animals per cage; 23 ± 2°C, 8:00–20:00, 12 h/12 h light/dark cycle). Mice were fed a standard chow diet and provided food and water ad libitum. Mice were randomly allocated and shaved dorsally at 7.5 weeks of age. Only mice in telogen were included for the further experiments (Müller‐Röver et al, [2001]). From 8 weeks of age, the shaved dorsal area was treated with vehicle control (ethanol and polyethylene glycol, 30% and 70% v/v), P5 (0.1 mM), or minoxidil (3%) every day. The mouse hair growth score (a value from 0 to 100 based on the skin pigmentation and hair shaft density) was monitored and documented at designated days with the experimenters being blind to the conditions, following a previous study (Chai et al, [2019]). A higher score corresponds to a transition from telogen to anagen. On day 35, we obtained dorsal cutaneous tissue for histological analysis: anagen induction scores (calculated using an assigned arbitrary score; telogen = 1, anagen I–VI = 2–7) (Müller‐Röver et al, [2001]).
# Adipoq−/− mice = experiment: Mouse hair cycle modulation, histology and anagen induction score, Adipoq−/− mice; details: Unpaired t-test
# Description: (§1) We also evaluated P5 effect in Adipoq ^−/− mouse (Ma et al, [2002]). […] Skin pigmentation was prominent in P5‐treated Adipoq ^−/− mice at day 14 (Fig 4E). […] At day 35, unlike vehicle‐treated Adipoq ^−/− mice showing little pigmentation, P5‐treated Adipoq ^−/− mice manifested hairs with pigmentation (Fig 4E). […] The DP cells in P5‐treated Adipoq ^−/− mice expressed versican (Fig 4G).
# (§2) Paraffin‐embedded mouse cutaneous back tissue was sectioned (4 μm thickness) and stained with hematoxylin and eosin. […] IF intensity was observed and recorded with a Nikon Eclipse Ni‐E fluorescence microscope (Nikon).
# (§3) For the hair cycle modulation experiment, Adipoq ^−/− (stock #008195; JAX) (Ma et al, [2002]), Adipor1 ^−/− (Yamauchi et al, [2007]; Okada‐Iwabu et al, [2013]), or C57BL/6 (KOATECH) female mice was used (Müller‐Röver et al, [2001]). […] The mouse hair growth score (a value from 0 to 100 based on the skin pigmentation and hair shaft density) was monitored and documented at designated days with the experimenters being blind to the conditions, following a previous study (Chai et al, [2019]). […] On day 35, we obtained dorsal cutaneous tissue for histological analysis: anagen induction scores (calculated using an assigned arbitrary score; telogen = 1, anagen I–VI = 2–7) (Müller‐Röver et al, [2001]).
# [1] = system: p-AMPK in HF cells of Adipoq−/− mice; experiment: IF p-AMPK in HF cells of Adipoq−/− mice after topical P5; details: Adipoq−/− mouse, topical 0.1 mM P5
# Description: as §1, §2, §3
substance,measurement,setting,value
"GLYYF [P5, GST-fused (GST-P5) in pulldown assays]",Hair cycle score vs vehicle,"C57BL/6 (WT) mice; n = 16 mice/group, Two-way ANOVA",higher
same,Gross morphology of dorsum,C57BL/6 (WT) mice; day 14,obvious pigmentation and hair
same,Gross morphology of dorsum,C57BL/6 (WT) mice; day 35,manifested a black hair coat
same,Anagen induction score vs vehicle,Adipoq−/− mice,significantly higher
same,p-AMPK in ORS cells of telogen HFs,[1],upregulation
